The text below walks through data of the supplement of paper PMC8967900.

Molecules are shown by their SMILES.
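Further: ALL cell lines in 384-well plates, five doses spanning 10,000-fold, each plate scaled between vehicle and 100 µmol/L benzalkonium chloride controls, sDSS an adapted area-under-curve metric.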

The subject of one experiment is ALL-PO. The experiment can be described thus: selective drug sensitivity score (sDSS, relative to normal bone marrow) (sDSS (score)); higher = more potent and effective on the cell line relative to normal bone marrow cells. As to conditions: 72 h.
With `Cc1c(-c2ccc(N3CCc4cccc(C(=O)Nc5nc6ccccc6s5)c4C3)nc2C(=O)O)cnn1CC12CC3CC(CC(C3)C1)C2` (top concentration 1000 nM), the “selective drug sensitivity score” value was -1.86.
Still for that read-out and setting: to `O=C(NOC[C@H](O)CO)c1ccc(F)c(F)c1Nc1ccc(I)cc1F` (top concentration 1000 nM) belongs 4.34.
Consider `CO[C@@H](C)Cn1c(=O)n(C)c2cnc3ccc(-c4cncc(C(C)(C)O)c4)cc3c21` (top concentration 2500 nM), for which the “selective drug sensitivity score” value turned out to be 4.88.
Same read-out and setting: under `Cc1cccc(CC(=O)N2CCc3c2ccc(-c2cn(C)c4ncnc(N)c24)c3F)n1` (top concentration 2500 nM) stands 0.22; under `CNC(=O)c1ccccc1Nc1nc(Nc2ccc3c(c2OC)CCC[C@H](N2CCN(CCO)CC2)C3)ncc1Cl` (top concentration 5000 nM), 5.76; under `COc1cc2ncnc(Oc3cccc(NC(=O)Nc4cc(C(C)(C)C(F)(F)F)on4)c3)c2cc1OC` (top concentration 10000 nM), 11.5.
The same measure, in the same setting: under `C[C@@H](Oc1cc(-n2cnc3ccc(CN4CCN(C)CC4)cc32)sc1C(N)=O)c1ccccc1C(F)(F)F` (top concentration 10000 nM) stands 22.
On the same count and under the same terms, under `Nc1nccc(-c2c(-c3ccc(F)cc3)ncn2C2CCCCC2)n1` (top concentration 10000 nM) stands 3.
Take `O=C(O)c1ccc(-c2c[nH]c3ncc(-c4ccccc4)cc23)cc1C1CCCC1` (top concentration 10000 nM): the “selective drug sensitivity score” value was determined as 5.86.
Still for that read-out and setting: to `C[C@@H]1CN(CC(=O)Nc2ccc3c(c2)Cc2cccc(-c4cc(=O)cc(N5CCOCC5)o4)c2S3)C[C@H](C)O1` (top concentration 25000 nM) belongs 2.02; to `COc1ccc2[nH]cc(/C=C3\C(=O)Nc4ccc(NC(=O)CCN5CCCCC5)cc43)c2c1` (top concentration 50000 nM), 5.18.
Still for that read-out and setting: under `Cc1nn(C)c(COc2ccc(N3CCN(S(=O)(=O)N(C)C)CC3)cc2)c1-c1cccc2c(CCCOc3cccc4ccccc34)c(C(=O)O)n(CCN3CCOCC3)c12` (top concentration 50000 nM) stands 8.86; under `C[C@H](Nc1ncnc2[nH]cnc12)c1cc2ccc(F)cc2nc1-c1ccccn1` [AMG319] (top concentration 1000 nM), -1.42; under `C=CCn1c(=O)c2cnc(Nc3ccc(N4CCN(C)CC4)cc3)nc2n1-c1cccc(C(C)(C)O)n1` [AZD1775] (top concentration 10000 nM), 7.04.
Same read-out and setting: under `NC(=O)Nc1cc(-c2cccc(F)c2)sc1C(=O)N[C@H]1CCCNC1` [AZD7762] (top concentration 1000 nM) stands 9.2; under `Cc1cc([C@@H](C)Nc2ccccc2C(=O)O)c2nc(N3CCOCC3)cc(=O)n2c1` [AZD-6482] (top concentration 2500 nM), 3.92; under `CN(C)Cc1c(C(=O)NCCOc2ccc(C(=O)NO)cc2)oc2ccccc12` [Abexinostat] (top concentration 10000 nM), 6.76.
In the case of `S=C(NCc1ccc2c(c1)OCO2)N1CCN(c2ncnc3c2oc2ccccc23)CC1` [Amuvatinib] (top concentration 10000 nM), the “selective drug sensitivity score” value was found to be 1.16.
Still for that read-out and setting: to `CC(=O)OC[C@H]1O[C@@H]([S-])[C@H](OC(C)=O)[C@@H](OC(C)=O)[C@@H]1OC(C)=O.CCP(CC)CC.[Au+]` [Auranofin] (top concentration 2500 nM) belongs 0.34.

A further experiment relates to CCRF-CEM. Described as above. The note with it: 72 h.
As for `Cc1c(-c2ccc(N3CCc4cccc(C(=O)Nc5nc6ccccc6s5)c4C3)nc2C(=O)O)cnn1CC12CC3CC(CC(C3)C1)C2` (top concentration 1000 nM), the “selective drug sensitivity score” value worked out at 18.6.
Consider `O=C(NOC[C@H](O)CO)c1ccc(F)c(F)c1Nc1ccc(I)cc1F` (top concentration 1000 nM), for which the “selective drug sensitivity score” value amounted to 1.14.
As for `CO[C@@H](C)Cn1c(=O)n(C)c2cnc3ccc(-c4cncc(C(C)(C)O)c4)cc3c21` (top concentration 2500 nM), the “selective drug sensitivity score” value is 8.48.
For the compound `Cc1cccc(CC(=O)N2CCc3c2ccc(-c2cn(C)c4ncnc(N)c24)c3F)n1` (top concentration 2500 nM), the “selective drug sensitivity score” value is -0.08.
On the same count and under the same terms, to `CNC(=O)c1ccccc1Nc1nc(Nc2ccc3c(c2OC)CCC[C@H](N2CCN(CCO)CC2)C3)ncc1Cl` (top concentration 5000 nM) belongs -2.54; to `COc1cc2ncnc(Oc3cccc(NC(=O)Nc4cc(C(C)(C)C(F)(F)F)on4)c3)c2cc1OC` (top concentration 10000 nM), 0.1; to `C[C@@H](Oc1cc(-n2cnc3ccc(CN4CCN(C)CC4)cc32)sc1C(N)=O)c1ccccc1C(F)(F)F` (top concentration 10000 nM), 22.7.
The same measure, in the same setting: to `Nc1nccc(-c2c(-c3ccc(F)cc3)ncn2C2CCCCC2)n1` (top concentration 10000 nM) belongs 0.7; to `O=C(O)c1ccc(-c2c[nH]c3ncc(-c4ccccc4)cc23)cc1C1CCCC1` (top concentration 10000 nM), 3.66.
Turning to `C[C@@H]1CN(CC(=O)Nc2ccc3c(c2)Cc2cccc(-c4cc(=O)cc(N5CCOCC5)o4)c2S3)C[C@H](C)O1` (top concentration 25000 nM), the “selective drug sensitivity score” value worked out at 2.62.
On the same count and under the same terms, under `COc1ccc2[nH]cc(/C=C3\C(=O)Nc4ccc(NC(=O)CCN5CCCCC5)cc43)c2c1` (top concentration 50000 nM) stands -0.02.
The same measure, in the same setting: to `Cc1nn(C)c(COc2ccc(N3CCN(S(=O)(=O)N(C)C)CC3)cc2)c1-c1cccc2c(CCCOc3cccc4ccccc34)c(C(=O)O)n(CCN3CCOCC3)c12` (top concentration 50000 nM) belongs 9.06.
The same measure, in the same setting: under `C[C@H](Nc1ncnc2[nH]cnc12)c1cc2ccc(F)cc2nc1-c1ccccn1` [AMG319] (top concentration 1000 nM) stands -1.42; under `C=CCn1c(=O)c2cnc(Nc3ccc(N4CCN(C)CC4)cc3)nc2n1-c1cccc(C(C)(C)O)n1` [AZD1775] (top concentration 10000 nM), 14.2.
On to `NC(=O)Nc1cc(-c2cccc(F)c2)sc1C(=O)N[C@H]1CCCNC1` [AZD7762] (top concentration 1000 nM), for which the “selective drug sensitivity score” value was -0.1.
As for `Cc1cc([C@@H](C)Nc2ccccc2C(=O)O)c2nc(N3CCOCC3)cc(=O)n2c1` [AZD-6482] (top concentration 2500 nM), the “selective drug sensitivity score” value stood at 2.02.
On the same count and under the same terms, to `CN(C)Cc1c(C(=O)NCCOc2ccc(C(=O)NO)cc2)oc2ccccc12` [Abexinostat] (top concentration 10000 nM) belongs 4.56.
Consider `S=C(NCc1ccc2c(c1)OCO2)N1CCN(c2ncnc3c2oc2ccccc23)CC1` [Amuvatinib] (top concentration 10000 nM), for which the “selective drug sensitivity score” value turned out to be 1.56.
On to `CC(=O)OC[C@H]1O[C@@H]([S-])[C@H](OC(C)=O)[C@@H](OC(C)=O)[C@@H]1OC(C)=O.CCP(CC)CC.[Au+]` [Auranofin] (top concentration 2500 nM), for which the “selective drug sensitivity score” value worked out at 2.74.

The test system of another experiment is COG-LL-317. The experiment is described as above. The note with it: 72 h.
Take `Cc1c(-c2ccc(N3CCc4cccc(C(=O)Nc5nc6ccccc6s5)c4C3)nc2C(=O)O)cnn1CC12CC3CC(CC(C3)C1)C2` (top concentration 1000 nM): the “selective drug sensitivity score” value came to 25.9.
Same read-out and setting: to `O=C(NOC[C@H](O)CO)c1ccc(F)c(F)c1Nc1ccc(I)cc1F` (top concentration 1000 nM) belongs -1.66.
Same read-out and setting: under `CO[C@@H](C)Cn1c(=O)n(C)c2cnc3ccc(-c4cncc(C(C)(C)O)c4)cc3c21` (top concentration 2500 nM) stands 0.78.
Still for that read-out and setting: under `Cc1cccc(CC(=O)N2CCc3c2ccc(-c2cn(C)c4ncnc(N)c24)c3F)n1` (top concentration 2500 nM) stands -0.68; under `CNC(=O)c1ccccc1Nc1nc(Nc2ccc3c(c2OC)CCC[C@H](N2CCN(CCO)CC2)C3)ncc1Cl` (top concentration 5000 nM), -2.14.
On to `COc1cc2ncnc(Oc3cccc(NC(=O)Nc4cc(C(C)(C)C(F)(F)F)on4)c3)c2cc1OC` (top concentration 10000 nM), for which the “selective drug sensitivity score” value amounted to 0.
Same read-out and setting: to `C[C@@H](Oc1cc(-n2cnc3ccc(CN4CCN(C)CC4)cc32)sc1C(N)=O)c1ccccc1C(F)(F)F` (top concentration 10000 nM) belongs 25.4.
Same read-out and setting: under `Nc1nccc(-c2c(-c3ccc(F)cc3)ncn2C2CCCCC2)n1` (top concentration 10000 nM) stands 4.4.
The same measure, in the same setting: to `O=C(O)c1ccc(-c2c[nH]c3ncc(-c4ccccc4)cc23)cc1C1CCCC1` (top concentration 10000 nM) belongs 2.36.
